Reference: US8815869B2, “Lactam acetamides as calcium channel blockers” (AbbVie Inc., priority 2010, dated 2014)

Assays:
Human Cav3.2 = molecular target: T1, Human Cav3.2 (Homo sapiens, UniProt O95180); test: Electrophysiologic (whole-cell patch-clamp) assessment of calcium channel activity, HEK293 cells stably expressing hCav3.2; assay type: cell-based; details: −77 mV, GeoMean
T1 construct: expressed in transfected cells
Description: (ii) In Vitro Methods—Electrophysiologic Assessment of Calcium Channel Activity
Patch-clamp recordings were performed using HEK293 cells stably expressing hCav3.2. Cells were plated in T175 flasks and grown at 37° C. and under 5% CO2 to approximately 50% confluency. On the day of the experiment, cells were harvested with Detachin™ cell detachment solution (Genlantis, San Diego, Calif.) and maintained in serum-free culture medium supplemented with 25 mM HEPES up to several hours prior to experiment. Whole-cell patch-clamp recordings were obtained using extracellular saline consisting of (mM): 87.5 CsCl, 40 TEA-Cl, 5 CaCl2, 1 MgCl2, 10 HEPES, 10 glucose. The pH was adjusted to 7.2 with CsOH and the osmolarity was adjusted to approximately 310 mOsm with sucrose. Intracellular solution consisted of (mM): 112 CsCl, 27 CsF, 2 NaCl, 8.2 EGTA, 10 HEPES. Prior to an experiment 4 mM Mg2ATP was added and the pH was adjusted to 7.2 with CsOH with an osmolarity of approximately 290 mOsm. A two-pulse voltage protocol was utilized to assess compound inhibition. First, cells were held with an 8 second pre-pulse at −100 mV prior to a 160 millisecond test pulse to −30 mV. This was followed by an 8 second pre-pulse at approximately −75 mV prior to a […] test pulse to −30 mV. Increasing concentrations of antagonist were applied to individual cells in a multi-addition format with 5 minutes in each test concentration. For each cell, responses were normalized to dimethyl sulfoxide vehicle control to generate concentration-response curves.

Sprague Dawley rats = test: Capsaicin induced secondary mechanical hyperalgesia model; assay type: in vivo; details: po, 1 h; 30 mg/kg p.o., 60 minutes before testing; relative to vehicle; secondary mechanical hyperalgesia 180 minutes after capsaicin; rat
Description: (iii) In Vivo Data—Capsaicin Induced Secondary Mechanical Hyperalgesia Model
Sprague Dawley rats were briefly restrained, and capsaicin was administered at 10 μg in 10 μL of vehicle by intraplantar injection into the center of the right hind paw. Secondary mechanical hyperalgesia (SMH) was measured at the heel away from the site of injection 180 minutes following capsaicin exposure. Compounds and gabapentin (positive control), were administered p.o. 60 minutes before testing (2 hours after capsaicin) or i.p. 30 minutes before testing (2.5 hours after capsaicin). SMH was measured using calibrated von Frey filaments (Stoelting, Woodale, Ill.). Following the 1 hour habituation in the testing room, rats were moved to individual plexiglass chambers that sit on top of a wire mesh to allow for access for stimulation of the plantar surface of the hind paws. Rats were allowed to acclimate to the new chambers for 15 minutes before the onset of testing. The paw withdrawal threshold was determined by increasing and decreasing stimulus intensity (force: g) and calculated using Dixon's up-down method (Chaplan, S R; et al. J. Neuroscience Methods 1994; 53: 55-63). The filaments (maximum force of 15.0 g) were held in place for 8 seconds or until there was a withdrawal response from the mechanical stimulation.

T1 sequence (O95180 whole entry): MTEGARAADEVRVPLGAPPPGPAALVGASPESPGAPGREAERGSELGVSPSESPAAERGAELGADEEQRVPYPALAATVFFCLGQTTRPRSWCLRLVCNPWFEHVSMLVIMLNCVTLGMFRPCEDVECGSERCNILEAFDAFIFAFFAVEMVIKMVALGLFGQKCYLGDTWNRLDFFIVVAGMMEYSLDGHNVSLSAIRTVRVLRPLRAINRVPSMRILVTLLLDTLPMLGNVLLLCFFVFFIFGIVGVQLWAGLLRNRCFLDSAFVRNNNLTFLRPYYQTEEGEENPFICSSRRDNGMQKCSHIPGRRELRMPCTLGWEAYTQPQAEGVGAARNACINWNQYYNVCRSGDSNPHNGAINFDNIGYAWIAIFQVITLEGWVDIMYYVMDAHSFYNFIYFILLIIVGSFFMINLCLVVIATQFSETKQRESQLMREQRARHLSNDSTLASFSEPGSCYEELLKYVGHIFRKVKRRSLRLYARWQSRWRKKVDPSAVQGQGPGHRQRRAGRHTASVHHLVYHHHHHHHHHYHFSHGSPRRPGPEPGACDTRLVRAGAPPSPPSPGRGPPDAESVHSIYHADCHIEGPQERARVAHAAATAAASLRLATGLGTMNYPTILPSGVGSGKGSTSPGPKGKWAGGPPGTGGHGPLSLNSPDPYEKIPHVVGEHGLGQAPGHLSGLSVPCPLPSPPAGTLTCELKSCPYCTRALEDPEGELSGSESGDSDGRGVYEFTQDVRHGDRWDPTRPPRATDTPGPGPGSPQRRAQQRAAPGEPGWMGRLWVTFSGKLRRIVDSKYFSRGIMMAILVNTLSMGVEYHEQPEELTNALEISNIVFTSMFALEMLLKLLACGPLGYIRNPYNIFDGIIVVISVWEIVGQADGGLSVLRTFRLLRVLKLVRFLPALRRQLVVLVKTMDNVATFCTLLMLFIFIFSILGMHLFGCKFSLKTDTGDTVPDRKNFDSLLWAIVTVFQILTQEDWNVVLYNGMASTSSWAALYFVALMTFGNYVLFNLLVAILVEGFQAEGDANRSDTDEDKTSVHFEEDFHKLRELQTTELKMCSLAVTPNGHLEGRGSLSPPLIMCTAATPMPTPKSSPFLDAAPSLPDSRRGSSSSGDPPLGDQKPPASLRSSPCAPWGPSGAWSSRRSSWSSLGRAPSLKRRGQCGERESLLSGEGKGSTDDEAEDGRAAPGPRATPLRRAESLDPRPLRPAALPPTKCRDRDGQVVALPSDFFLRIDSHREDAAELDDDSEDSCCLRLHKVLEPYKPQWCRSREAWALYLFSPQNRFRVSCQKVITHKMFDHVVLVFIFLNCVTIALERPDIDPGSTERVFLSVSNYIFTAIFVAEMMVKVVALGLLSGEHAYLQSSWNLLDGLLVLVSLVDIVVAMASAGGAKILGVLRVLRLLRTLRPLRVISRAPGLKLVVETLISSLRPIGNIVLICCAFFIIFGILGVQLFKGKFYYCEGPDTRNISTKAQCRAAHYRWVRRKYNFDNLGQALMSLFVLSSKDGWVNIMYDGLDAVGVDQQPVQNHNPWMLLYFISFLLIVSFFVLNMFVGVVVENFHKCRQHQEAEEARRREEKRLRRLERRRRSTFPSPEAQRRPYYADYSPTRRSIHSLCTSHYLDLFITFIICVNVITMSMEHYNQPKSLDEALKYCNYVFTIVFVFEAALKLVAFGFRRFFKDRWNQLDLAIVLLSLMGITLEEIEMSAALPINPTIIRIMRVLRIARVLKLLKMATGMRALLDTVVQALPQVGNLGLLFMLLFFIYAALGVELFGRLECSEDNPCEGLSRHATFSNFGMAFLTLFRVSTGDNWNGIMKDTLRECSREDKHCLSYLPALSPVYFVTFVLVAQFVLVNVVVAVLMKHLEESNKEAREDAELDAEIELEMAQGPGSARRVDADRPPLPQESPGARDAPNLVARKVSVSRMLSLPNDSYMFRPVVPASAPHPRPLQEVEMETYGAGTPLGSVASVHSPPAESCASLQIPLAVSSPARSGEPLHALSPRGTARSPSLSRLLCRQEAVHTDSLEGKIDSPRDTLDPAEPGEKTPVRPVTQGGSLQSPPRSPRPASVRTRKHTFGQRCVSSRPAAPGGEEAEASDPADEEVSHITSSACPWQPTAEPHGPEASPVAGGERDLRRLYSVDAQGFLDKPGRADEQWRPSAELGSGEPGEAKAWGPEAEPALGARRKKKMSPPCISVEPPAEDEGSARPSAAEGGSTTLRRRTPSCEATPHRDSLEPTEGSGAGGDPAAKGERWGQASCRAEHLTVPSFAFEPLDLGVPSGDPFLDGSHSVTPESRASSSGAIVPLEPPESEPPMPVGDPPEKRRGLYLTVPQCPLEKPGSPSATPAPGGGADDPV

Row | SMILES | IC50 (Human Cav3.2) | inhibition in vivo at 30 mg/kg (Sprague Dawley rats)
1 | O=C(CN1CCCC(c2ccccc2)(c2ccccc2)C1=O)N1C[C@@H]2CN[C@@H](C2)C1 (relative stereo) [Example 13, 1-{2-[(1S*,5S*)-3,6-Diazabicyclo[3.2.1]oct-3-yl]-2-oxoethyl}-3,3-diphenylpiperidin-2-one] | 3.6 µM | 60%
2 | O=C(CN1CCCC(c2ccccc2)(c2ccccc2)C1=O)NC1CCNCC1 [Example 1, 2-(2-Oxo-3,3-diphenylpiperidin-1-yl)-N-(piperidin-4-yl)acetamide] | > 10 µM | 
3 | CC1(C)C(=O)NCCN1C(=O)CN1CCCC(c2ccccc2)(c2ccccc2)C1=O [Example 2, 3,3-Dimethyl-4-[(2-oxo-3,3-diphenylpiperidin-1-yl)acetyl]piperazin-2-one] | 2.77 µM | 
4 | O=C(CN1CCCC(c2ccccc2)(c2ccccc2)C1=O)N1C[C@@H]2CCCN[C@@H]2C1 [Example 3, 1-{2-[(4aS,7aS)-Octahydro-6H-pyrrolo[3,4-b]pyridin-6-yl]-2-oxoethyl}-3,3-diphenylpiperidin-2-one] | 4.35 µM | 31%
5 | O=C(CN1CCCC(c2ccccc2)(c2ccccc2)C1=O)N1C[C@H]2CCCN[C@H]2C1 [Example 4, 1-{2-[(4aR,7aR)-Octahydro-6H-pyrrolo[3,4-b]pyridin-6-yl]-2-oxoethyl}-3,3-diphenylpiperidin-2-one] | > 10 µM | 19%
6 | O=C(CN1CCCC(c2ccccc2)(c2ccccc2)C1=O)N1CCC[C@H]2CNC[C@H]21 [Example 5, 1-{2-[(4aS,7aS)-Octahydro-1H-pyrrolo[3,4-b]pyridin-1-yl]-2-oxoethyl}-3,3-diphenylpiperidin-2-one] | 1.6 µM | 
7 | O=C(CN1CCCC(c2ccccc2)(c2ccccc2)C1=O)N1CC2CNCC2C1 (stereo not shown) [Example 6, 1-(2-Hexahydropyrrolo[3,4-c]pyrrol-2(1H)-yl-2-oxoethyl)-3,3-diphenylpiperidin-2-one] | 5.31 µM | 74%
8 | O=C(CN1CCCC(c2ccccc2)(c2ccccc2)C1=O)N1CC2(CCNCC2)C1 [Example 7, 1-[2-(2,7-Diazaspiro[3.5]non-2-yl)-2-oxoethyl]-3,3-diphenylpiperidin-2-one] | 5.8 µM | 19%
9 | O=C(CN1CCCC(c2ccccc2)(c2ccccc2)C1=O)NC[C@H]1CCCN1 [Example 8, 2-(2-Oxo-3,3-diphenylpiperidin-1-yl)-N-[(2R)-pyrrolidin-2-ylmethyl]acetamide] | > 10 µM | 
10 | O=C(CN1CCCC(c2ccccc2)(c2ccccc2)C1=O)NC[C@@H]1CCCN1 [Example 9, 2-(2-Oxo-3,3-diphenylpiperidin-1-yl)-N-[(2S)-pyrrolidin-2-ylmethyl]acetamide] | 5.86 µM | 
11 | O=C1CN(C(=O)CN2CCCC(c3ccccc3)(c3ccccc3)C2=O)CCN1 [Example 10, 4-[(2-Oxo-3,3-diphenylpiperidin-1-yl)acetyl]piperazin-2-one] | > 10 µM | 
12 | O=C(CN1CCCC(c2ccccc2)(c2ccccc2)C1=O)NC1CNC1 [Example 11, N-Azetidin-3-yl-2-(2-oxo-3,3-diphenylpiperidin-1-yl)acetamide] | 0.56 µM | 
13 | O=C(CN1CCCC(c2ccccc2)(c2ccccc2)C1=O)N1CCNCC1 [Example 12, 1-(2-Oxo-2-piperazin-1-ylethyl)-3,3-diphenylpiperidin-2-one] | > 10 µM | 41%
14 | O=C(CN1CCC(c2ccc(F)cc2)(c2ccc(F)cc2)C1=O)N1CCNCC1 [Example 14, 3,3-Bis(4-fluorophenyl)-1-(2-oxo-2-piperazin-1-ylethyl)pyrrolidin-2-one] | 7.75 µM | 52%
15 | O=C(CN1CCC(c2ccc(F)cc2)(c2ccc(F)cc2)C1=O)N1CCN2CCC[C@@H]2C1 [Example 15, 3,3-Bis(4-fluorophenyl)-1-{2-[(8aR)-hexahydropyrrolo[1,2-a]pyrazin-2(1H)-yl]-2-oxoethyl}pyrrolidin-2-one] | 2.16 µM | 
16 | O=C(CN1CCC(c2ccc(F)cc2)(c2ccc(F)cc2)C1=O)NC1CNC1 [Example 16, N-Azetidin-3-yl-2-[3,3-bis(4-fluorophenyl)-2-oxopyrrolidin-1-yl]acetamide] | 0.82 µM | 
17 | O=C(CN1CCC(c2ccc(F)cc2)(c2ccc(F)cc2)C1=O)N(C1CCNCC1)C1CC1 [Example 17, 2-[3,3-Bis(4-fluorophenyl)-2-oxopyrrolidin-1-yl]-N-cyclopropyl-N-piperidin-4-ylacetamide] | 4.07 µM | 
18 | O=C(CN1CCC(c2ccc(F)cc2)(c2ccc(F)cc2)C1=O)N(C1CCC1)C1CCNCC1 [Example 18, 2-[3,3-Bis(4-fluorophenyl)-2-oxopyrrolidin-1-yl]-N-cyclobutyl-N-piperidin-4-ylacetamide] | 9.1 µM | 5%
19 | O=C(CN1CCC(c2ccc(F)cc2)(c2ccc(F)cc2)C1=O)N(C1CCCC1)C1CCNCC1 [Example 19, 2-[3,3-Bis(4-fluorophenyl)-2-oxopyrrolidin-1-yl]-N-cyclopentyl-N-piperidin-4-ylacetamide] | 1.1 µM | 
20 | O=C(CN1CCC(c2ccccc2)(c2ccccc2)C1=O)N1CCN(C2CCCCC2)CC1 [Example 21, 1-[2-(4-Cyclohexylpiperazin-1-yl)-2-oxoethyl]-3,3-diphenylpyrrolidin-2-one] | 1 µM | 
21 | CN1CCN(C(=O)CN2CCCC(c3ccccc3)(c3ccccc3)C2=O)CC1 [Example 22, 1-[2-(4-Methylpiperazin-1-yl)-2-oxoethyl]-3,3-diphenylpiperidin-2-one] | > 10 µM | 
22 | O=C(CN1CCCC(c2ccc(F)cc2)(c2ccc(F)cc2)C1=O)N1CCNCC1 [Example 23, 3,3-Bis(4-fluorophenyl)-1-(2-oxo-2-piperazin-1-ylethyl)piperidin-2-one] |  | -2%
23 | O=C(CN1CCC(c2ccccc2)(c2ccccc2)C1=O)N1CCNCC1 [Example 24, 1-(2-Oxo-2-piperazin-1-ylethyl)-3,3-diphenylpyrrolidin-2-one] |  | 52%
